The results in this text go back to patent US12364669B2, “Device and method for transdermal delivery of cannabidiol” (Remy Biosciences, Inc., priority 2020, dated 2025).

This data set in a line: Diffusion of CBD from transdermal devices through a human cadaver epidermis, Franz Diffusion Cell method. The conditions noted are these: Example 2, FIG. 4; reservoir device, 5 percent CBD in ethanol/water 70/30; with hydrophilic porous membrane 24 versus membrane omitted. It counts as in vitro ADME. On the procedure: The effects of using a hydrophobic, porous membrane versus a hydrophilic, porous membrane (such as membrane 24) in reservoir transdermal device 20 are studied in this example. […] The backing 22 is an occlusive backing film (PE/PET from 3M). Hydroxy ethyl cellulose is added to the solution to yield a thixotropic preparation 27. A volume of 300 microliters of the preparation is placed in the reservoir 26.
The skin adhesive 30 is a BIO PSA 7-4301 adhesive coated to a thickness of 15 g/m^2 on side 36 of membrane 24. An overlay adhesive patch is placed over the reservoir which forms an island in the middle. The overlay assures adhesion of the reservoir to the skin. The device 20 is contacted with a human cadaver epidermis, and diffusion through the epidermis is measured using the Franz Diffusion Cell method.
In a first run, membrane 24 is a Lydall® Evopor™ 5E02A, hydrophilic, microporous membrane (of 0.2 micrometers pore size). […]
The device 20 is contacted with a human cadaver epidermis, and diffusion through the epidermis is measured using the Franz Diffusion Cell method. […]
This example is conducted using three reservoir transdermal devices such as those of Example 1, with each having the hydrophilic, porous membrane described therein. […] Diffusion through a human cadaver epidermis is measured using the Franz Diffusion Method. […]

On to `C=C(C)[C@@H]1CCC(C)=C[C@H]1c1c(O)cc(CCCCC)cc1O` [CBD, Cannabidiol], for which the “permeability of CBD through the skin (cumulative flux versus time)” value is “the same regardless of whether the membrane 24 is provided”.
